Measurements as given in patent US10647713B2 (Nimbus Lakshmi, Inc., priority 2016, dated 2020).

Each molecule was assayed against human TYK2 (JH2domain-pseudokinase) (Homo sapiens (Human), UniProt P29597) (assay: TYK2 JH2 Domain Binding Assay (KINOMEscan, DiscoveRx)). Conditions: 11-point dilution, duplicate.
How it was run: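 TYK2 JH2 (G556–D888)–NFkB DBD fusion, DNA-tagged, from HEK293 extracts (<0.1 nM) competed against immobilised biotinylated ligand for 1 h at room temperature, 0.9% DMSO. Bead-retained kinase quantified by qPCR; Kd from 11-point 3-fold series (top 30,000 nM, duplicate), Hill fit with slope −1.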

Sequence of human TYK2 (JH2domain-pseudokinase) (P29597 556-888): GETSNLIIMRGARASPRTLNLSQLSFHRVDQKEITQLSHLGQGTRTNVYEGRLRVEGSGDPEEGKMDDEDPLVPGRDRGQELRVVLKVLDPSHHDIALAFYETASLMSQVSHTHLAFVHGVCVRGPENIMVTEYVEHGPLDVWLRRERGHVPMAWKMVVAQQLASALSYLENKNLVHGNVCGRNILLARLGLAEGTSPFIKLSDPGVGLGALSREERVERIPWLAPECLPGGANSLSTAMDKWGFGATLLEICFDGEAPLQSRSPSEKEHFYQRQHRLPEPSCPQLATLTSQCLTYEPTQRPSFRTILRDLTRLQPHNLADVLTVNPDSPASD

Row | Compound | Kd [nM]
1 | Cc1nc2c(Nc3ccc(-c4cnn(C)c4C)cc3S(C)(=O)=O)cc(NC(=O)C3CC3)nc2[nH]1 [I-265, N-(7-((4-(1,5-dimethyl-1H-pyrazol-4-yl)-2-(methylsulfonyl)phenyl)amino)-2-methyl-3H-imidazo[4,5-b]pyridin-5-yl)cyclopropanecarboxamide] | < 0.1
2 | Cc1nc2c(Nc3ccc(-c4ncc(C)s4)cc3S(C)(=O)=O)cc(NC(=O)C3CC3)nc2[nH]1 [I-305, N-(2-methyl-7-((2-(methylsulfonyl)-4-(5-methylthiazol-2-yl)phenyl)amino)-3H-imidazo[4,5-b]pyridin-5-yl)cyclopropanecarboxamide] | 0.1 to 0.5
3 | Cc1nc(-c2ccc(Nc3cc(Nc4cnc(C)c(C)n4)nc4[nH]c(C(F)F)nc34)c(S(C)(=O)=O)c2)c(C)s1 [I-580, 2-(difluoromethyl)-N5-(5,6-dimethylpyrazin-2-yl)-N7-(4-(2,5-dimethylthiazol-4-yl)-2-(methylsulfonyl)phenyl)-3H-imidazo[4,5-b]pyridine-5,7-diamine] | 0.1 to 0.5
4 | CS(=O)(=O)c1cc([C@@H]2CCCO2)ccc1Nc1cc(NC(=O)C2CC2)nc2[nH]c(C(F)F)nc12 [I-424, (S)—N-(2-(difluoromethyl)-7-((2-(methylsulfonyl)-4-(tetrahydrofuran-2-yl)phenyl)amino)-3H-imidazo[4,5-b]pyridin-5-yl)cyclopropanecarboxamide] | < 0.1
5 | Cc1c(-c2ccc(Nc3cc(Nc4cccc(C#N)n4)nc4[nH]c(C(F)F)nc34)c(S(C)(=O)=O)c2)cnn1C [I-302, 6-((2-(difluoromethyl)-7-((4-(1,5-dimethyl-1H-pyrazol-4-yl)-2-(methylsulfonyl)phenyl)amino)-3H-imidazo[4,5-b]pyridin-5-yl)amino)picolinonitrile] | 0.1 to 0.5
6 | Cc1nc2c(Nc3ccccc3S(C)(=O)=O)cc(Nc3cc4c(nn3)CCC4)nc2[nH]1 [I-597, N5-(6,7-dihydro-5H-cyclopenta[c]pyridazin-3-yl)-2-methyl-N7-(2-(methylsulfonyl)phenyl)-3H-imidazo[4,5-b]pyridine-5,7-diamine] | 0.1 to 0.5
7 | COc1c(Nc2cc(Nc3ccc(N4CCCCC4)cn3)nc3[nH]cnc23)cccc1-c1ncn(C)n1 [I-6, N7-(2-methoxy-3-(1-methyl-1H-1,2,4-triazol-3-yl)phenyl)-N5-(5-(piperidin-1-yl)pyridin-2-yl)-3H-imidazo[4,5-b]pyridine-5,7-diamine] | 0.5 to 1
8 | CN(c1cc(-c2cnn(C)c2)ccc1Nc1cc(NC(=O)[C@@H]2C[C@@H]2F)nc2[nH]c(C(F)F)nc12)S(C)(=O)=O (stereo in doubt) [Compound I-207] | 0.1 to 0.5
9 | Cc1nc2c(Nc3ccc([C@@H]4CCCOC4)cc3S(C)(=O)=O)cc(NC(=O)C3CC3)nc2[nH]1 [I-255, (S)—N-(2-methyl-7-((2-(methylsulfonyl)-4-(tetrahydro-2H-pyran-3-yl)phenyl)amino)-3H-imidazo[4,5-b]pyridin-5-yl)cyclopropanecarboxamide] | 0.1 to 0.5
10 | COc1c(Nc2cc(Nc3ccc(C(C)C)c(C#N)n3)nc3[nH]c(C(F)F)nc23)cccc1-c1nnn(C)n1 [I-42, 6-((2-(difluoromethyl)-7-((2-methoxy-3-(2-methyl-2H-tetrazol-5-yl)phenyl)amino)-3H-imidazo[4,5-b]pyridin-5-yl)amino)-3-isopropylpicolinonitrile] | 1 to 10
11 | COc1c(Nc2cc(Nc3cc(C)cc(C#N)n3)nc3[nH]c(C(F)F)nc23)cccc1-c1ccn(C)n1 [I-33, 6-((2-(difluoromethyl)-7-((2-methoxy-3-(1-methyl-1H-pyrazol-3-yl)phenyl)amino)-3H-imidazo[4,5-b]pyridin-5-yl)amino)-4-methylpicolinonitrile] | 0.5 to 1
12 | CN(c1cc(C(F)F)ccc1Nc1cc(Nc2ccn(C)n2)nc2[nH]c(C(F)F)nc12)S(C)(=O)=O [I-202, N-(5-(difluoromethyl)-2-((2-(difluoromethyl)-5-((1-methyl-1H-pyrazol-3-yl)amino)-3H-imidazo[4,5-b]pyridin-7-yl)amino)phenyl)-N-methylmethanesulfonamide] | 0.5 to 1
13 | COc1c(Nc2cc(NC(=O)C3CC3)nc3[nH]c(C)nc23)cccc1-c1nc(C)nn1C [I-114, N-(7-((3-(1,3-dimethyl-1H-1,2,4-triazol-5-yl)-2-methoxyphenyl)amino)-2-methyl-3H-imidazo[4,5-b]pyridin-5-yl)cyclopropanecarboxamide] | 1 to 10
14 | CS(=O)(=O)c1cc([C@H]2CCCCO2)ccc1Nc1cc(NC(=O)C2CC2)nc2[nH]c(C(F)F)nc12 [I-248, (R)—N-(2-(difluoromethyl)-7-((2-(methylsulfonyl)-4-(tetrahydro-2H-pyran-2-yl)phenyl)amino)-3H-imidazo[4,5-b]pyridin-5-yl)cyclopropanecarboxamide] | < 0.1
15 | Cc1ncc(Nc2cc(Nc3ccc(Cl)cc3N(C)S(C)(=O)=O)c3nc(C(F)F)[nH]c3n2)nc1C [I-93, N-(5-chloro-2-((2-(difluoromethyl)-5-((5,6-dimethylpyrazin-2-yl)amino)-3H-imidazo[4,5-b]pyridin-7-yl)amino)phenyl)-N-methylmethanesulfonamide] | 0.1 to 0.5
16 | COc1c(Nc2cc(Nc3cnc(N4CC[C@@H](OC)C4)c(C#N)n3)nc3[nH]c(C)nc23)cccc1-c1nnn(C)n1 [I-117, (R)-6-((7-((2-methoxy-3-(2-methyl-2H-tetrazol-5-yl)phenyl)amino)-2-methyl-3H-imidazo[4,5-b]pyridin-5-yl)amino)-3-(3-methoxypyrrolidin-1-yl)pyrazine-2-carbonitrile] | 1 to 10
17 | CS(=O)(=O)c1ccccc1Nc1cc(Nc2ccc3c(n2)CCOC3)nc2[nH]c(C(F)F)nc12 [I-531] | < 0.1

Continued, values first:

Row | Kd [nM] | Compound
18 | 0.5 to 1 | COC(C)c1ccc(Nc2cc(NC(=O)C3CC3)nc3[nH]c(C(F)F)nc23)c(S(C)(=O)=O)c1 (centres unmarked) [I-402, N-(2-(difluoromethyl)-7-((4-(1-methoxyethyl)-2-(methylsulfonyl)phenyl)amino)-3H-imidazo[4,5-b]pyridin-5-yl)cyclopropanecarboxamide]
19 | 0.1 to 0.5 | CN(c1cc([C@@H]2CCCCO2)ccc1Nc1cc(NC(=O)C2CC2)nc2[nH]c(C(F)F)nc12)S(C)(=O)=O [I-219, (S)—N-(2-(difluoromethyl)-7-((2-(N-methylmethylsulfonamido)-4-(tetrahydro-2H-pyran-2-yl)phenyl)amino)-3H-imidazo[4,5-b]pyridin-5-yl)cyclopropanecarboxamide]
20 | 0.1 to 0.5 | CCS(=O)(=O)N(C)c1ccccc1Nc1cc(Nc2cccc(C#N)n2)nc2[nH]c(C)nc12 [I-181, N-(2-((5-((6-cyanopyridin-2-yl)amino)-2-methyl-3H-imidazo[4,5-b]pyridin-7-yl)amino)phenyl)-N-methylethanesulfonamide]
21 | > 10 | COc1c(Nc2cc(NC(=O)C3CC3)nc3[nH]c(C(F)F)nc23)ccc(-c2nn(C)cc2C)c1F [I-556, N-(2-(difluoromethyl)-7-((4-(1,4-dimethyl-1H-pyrazol-3-yl)-3-fluoro-2-methoxyphenyl)amino)-3H-imidazo[4,5-b]pyridin-5-yl)cyclopropanecarboxamide]
22 | 0.1 to 0.5 | Cc1cn(C)c(-c2ccc(Nc3cc(NC(=O)C4CC4)nc4[nH]c(C(F)F)nc34)c(S(C)(=O)=O)c2)n1 [I-450, N-(2-(difluoromethyl)-7-((4-(1,4-dimethyl-1H-imidazol-2-yl)-2-(methylsulfonyl)phenyl)amino)-3H-imidazo[4,5-b]pyridin-5-yl)cyclopropanecarboxamide]
23 | 0.1 to 0.5 | Cc1nc2c(Nc3ccc(-c4cncn4C)cc3N(C)S(C)(=O)=O)cc(NC(=O)[C@@H]3CC3(F)F)nc2[nH]1 [I-274, (S)-2,2-difluoro-N-(2-methyl-7-((4-(1-methyl-1H-imidazol-5-yl)-2-(N-methylmethylsulfonamido)phenyl)amino)-3H-imidazo[4,5-b]pyridin-5-yl)cyclopropane-1-carboxamide]
24 | 0.1 to 0.5 | Cc1c(-c2ccc(Nc3cc(NC(=O)C4CC4)nc4[nH]c(C(F)F)nc34)c(S(C)(=O)=O)c2)nn(C)c1C [I-350]
25 | 0.1 to 0.5 | Cc1nc2c(Nc3ccc(-c4cn(C)cn4)cc3N(C)S(C)(=O)=O)cc(NC(=O)C3CC3)nc2[nH]1 [I-156, N-(2-methyl-7-((4-(1-methyl-1H-imidazol-4-yl)-2-(N-methylmethylsulfonamido)phenyl)amino)-3H-imidazo[4,5-b]pyridin-5-yl)cyclopropanecarboxamide]
26 | 1 to 10 | CC1(C)COC(c2ccc(Nc3cc(NC(=O)[C@@H]4C[C@@H]4F)nc4[nH]c(C(F)F)nc34)c(S(C)(=O)=O)c2)=N1 [I-428, (1S,2S)—N-(2-(difluoromethyl)-7-((4-(4,4-dimethyl-4,5-dihydrooxazol-2-yl)-2-(methylsulfonyl)phenyl)amino)-3H-imidazo[4,5-b]pyridin-5-yl)-2-fluorocyclopropane-1-carboxamide]
27 | 0.1 to 0.5 | Cc1nc2c(Nc3ccc(-c4cnn(C)c4)cc3N(C)S(C)(=O)=O)cc(NC(=O)[C@H]3C[C@H]3F)nc2[nH]1 [I-269, (1R,2R)-2-fluoro-N-(2-methyl-7-((4-(1-methyl-1H-pyrazol-4-yl)-2-(N-methylmethylsulfonamido)phenyl)amino)-3H-imidazo[4,5-b]pyridin-5-yl)cyclopropane-1-carboxamide]
28 | 0.1 to 0.5 | COc1c(Nc2cc(Nc3cccc(C#N)n3)nc3[nH]c(C(F)F)nc23)cccc1-c1nnn(C)n1 [I-17, 6-((2-(difluoromethyl)-7-((2-methoxy-3-(2-methyl-2H-tetrazol-5-yl)phenyl)amino)-3H-imidazo[4,5-b]pyridin-5-yl)amino)picolinonitrile]
29 | 0.1 to 0.5 | CN(c1cc(C(F)F)ccc1Nc1cc(Nc2cccc(C#N)n2)nc2[nH]c(C(F)F)nc12)S(C)(=O)=O [I-178, N-(2-((5-((6-cyanopyridin-2-yl)amino)-2-(difluoromethyl)-3H-imidazo[4,5-b]pyridin-7-yl)amino)-5-(difluoromethyl)phenyl)-N-methylmethanesulfonamide]
